Earlier results on 1 compound are cited in patent publication EP0535567A1, “Liposomes containing volatile inhalation anaesthetics, their preparation and their use” (B. Braun Melsungen AG, priority 1991, dated 1993).

The conditions of this data set: fraction of the anaesthetic that is metabolised.

Turning to `FC(F)OC(Cl)C(F)(F)F` (stereo not shown) [Isofluran, 1-Chlor-2,2,2-trifluorethyl(difluormethyl)ether], the verstoffwechselt is given as less than 2%.
